Measured values from patent US10294202B2, “Pyrrolidinones as herbicides” (FMC Corporation, priority 2013, dated 2019).

How the values were obtained:
Experiment in all cases: Test C pre-/postemergence herbicide test
corn = format: in vivo, Zea mays
In short: (§1)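 Response scores range from 0, meaning no effect, to 100, meaning complete control, assigned visually by comparison with controls roughly two weeks (13 to 15 days) after spraying. Applications were made preemergence to seeded loam–sand soil and postemergence to 1- to 4-leaf plants.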

velvetleaf = format: in vivo, Abutilon theophrasti
In short: as §1

waterhemp = format: in vivo, Amaranthus rudis
In short: as §1

wheat (winter wheat) = format: in vivo, Triticum aestivum
In short: as §1

barnyardgrass = format: in vivo, Echinochloa crus-galli; details: for Barnyardgrass plant response rating: scale 0 to 100, 0 is no effect and 100 is complete control
In short: as §1

pigweed = format: in vivo, Amaranthus retroflexus
In short: as §1

soybean = format: in vivo, Glycine max; details: for Soybean plant response rating: scale 0 to 100, 0 is no effect and 100 is complete control
In short: as §1

oilseed rape = format: in vivo, Brassica napus
In short: as §1

morningglory = format: in vivo, Ipomoea coccinea
In short: as §1

oat, wild = format: in vivo, Avena fatua
In short: as §1

[1] = Postemergence, 31 g ai/ha, scale 0 (no effect) to 100 (complete control)
[2] = Postemergence, 62 g ai/ha, scale 0 to 100 (0 no effect, 100 complete control)
[3] = Postemergence, 125 g ai/ha, scale 0 to 100 (0 no effect, 100 complete control)
[4] = Postemergence, 250 g ai/ha, scale 0 to 100 (0 no effect, 100 complete control)
[5] = Preemergence, 31 g ai/ha, scale 0 to 100, 0 is no effect and 100 is complete control
[6] = Preemergence, 62 g ai/ha, scale 0 to 100
[7] = Preemergence, 125 g ai/ha, scale 0 to 100 (0 no effect, 100 complete control)
[8] = Postemergence, 31 g ai/ha, scale 0 to 100 (0 no effect, 100 complete control)
[9] = Postemergence, 62 g ai/ha, scale 0 (no effect) to 100 (complete control)
[10] = Preemergence, 62 g ai/ha, scale 0 to 100 (0 no effect, 100 complete control)

## O=C1NCC(c2ccc(F)c(F)c2)C1C(=O)Nc1cccc(F)c1F (racemic) [Compound 101]
corn; [1]
  Plant response rating, Corn: 0
corn; [2]
  Plant response rating, Corn: 0
corn; [3]
  Plant response rating, Corn: 0
corn; [4]
  Plant response rating, Corn: 0
corn; [5]
  Corn plant response rating: 0
corn; [6]
  Plant response rating, Corn: 0
corn; [7]
  Plant response rating, Corn: 5
corn; Preemergence, 250 g ai/ha
  Plant response rating (scale of 0 to 100), Corn: 65
velvetleaf; [1]
  Plant response rating, Velvetleaf: 0
velvetleaf; [2]
  Plant response rating, Velvetleaf: 0
velvetleaf; [3]
  Plant response rating, Velvetleaf: 10
velvetleaf; [4]
  Plant response rating, Velvetleaf: 30
velvetleaf; [5]
  Velvetleaf plant response rating: 15
velvetleaf; [6]
  Plant response rating, Velvetleaf: 0
velvetleaf; [7]
  Plant response rating, Velvetleaf: 5
velvetleaf; Preemergence, 250 g ai/ha
  Plant response rating (scale of 0 to 100), Velvetleaf: 70
waterhemp; [1]
  Plant response rating, Waterhemp: 0
waterhemp; [2]
  Plant response rating, Waterhemp: 5
waterhemp; [3]
  Plant response rating, Waterhemp: 20
waterhemp; [4]
  Plant response rating, Waterhemp: 35
waterhemp; [5]
  Waterhemp plant response rating: 50
waterhemp; [6]
  Plant response rating, Waterhemp: 70
waterhemp; [7]
  Plant response rating, Waterhemp: 50
waterhemp; Preemergence, 250 g ai/ha
  Plant response rating (scale of 0 to 100), Waterhemp: 85
Wheat (winter wheat); [1]
  Plant response rating, Wheat: 0
Wheat (winter wheat); [2]
  Plant response rating, Wheat: 0
Wheat (winter wheat); [3]
  Plant response rating, Wheat: 0
Wheat (winter wheat); [4]
  Plant response rating, Wheat: 0
Wheat (winter wheat); [5]
  Wheat plant response rating: 0
Wheat (winter wheat); [6]
  Plant response rating, Wheat: 20
Wheat (winter wheat); [7]
  Plant response rating, Wheat: 50
Wheat (winter wheat); Preemergence, 250 g ai/ha
  Plant response rating (scale of 0 to 100), Wheat: 55
barnyardgrass; [1]
  Plant response rating, Barnyardgrass: 0
barnyardgrass; [2]
  Plant response rating, Barnyardgrass: 35
barnyardgrass; [3]
  Plant response rating, Barnyardgrass: 65
barnyardgrass; [4]
  Plant response rating, Barnyardgrass: 90
barnyardgrass; Preemergence, 31 g ai/ha
  Barnyardgrass plant response rating: 90
barnyardgrass; [6]
  Plant response rating, Barnyardgrass: 95
barnyardgrass; [7]
  Plant response rating, Barnyardgrass: 95
barnyardgrass; Preemergence, 250 g ai/ha
  Plant response rating (scale of 0 to 100; 0 is no effect, 100 is complete control), Barnyardgrass: 95
pigweed; [1]
  Plant response rating, Pigweed: 0
pigweed; [2]
  Plant response rating, Pigweed: 10
pigweed; [3]
  Plant response rating, Pigweed: 15
pigweed; [4]
  Plant response rating, Pigweed: 45
pigweed; [5]
  Pigweed plant response rating: 0
pigweed; [6]
  Plant response rating, Pigweed: 0
pigweed; [7]
  Plant response rating, Pigweed: 55
pigweed; Preemergence, 250 g ai/ha
  Plant response rating (scale of 0 to 100), Pigweed: 85
soybean; [1]
  Plant response rating, Soybean: 0
soybean; [2]
  Plant response rating, Soybean: 0
soybean; [3]
  Plant response rating, Soybean: 5
soybean; [4]
  Plant response rating, Soybean: 5
soybean; Preemergence, 31 g ai/ha
  Soybean plant response rating: 0
soybean; [6]
  Plant response rating, Soybean: 0
soybean; [7]
  Plant response rating, Soybean: 0
soybean; Preemergence, 250 g ai/ha
  Plant response rating (scale of 0 to 100), Soybean: 10
Oilseed rape; [1]
  Plant response rating, Oilseed Rape: 5
Oilseed rape; [2]
  Plant response rating, Oilseed Rape: 10
Oilseed rape; [3]
  Plant response rating, Oilseed Rape: 50
Oilseed rape; [4]
  Plant response rating, Oilseed Rape: 35
Oilseed rape; [5]
  Oilseed Rape plant response rating: 0
Oilseed rape; [6]
  Plant response rating, Oilseed Rape: 35
Oilseed rape; [7]
  Plant response rating, Oilseed Rape: 80
Oilseed rape; Preemergence, 250 g ai/ha
  Plant response rating (scale of 0 to 100), Oilseed Rape: 80
morningglory; [1]
  Plant response rating, Morningglory: 15
morningglory; [2]
  Plant response rating, Morningglory: 15
morningglory; [3]
  Plant response rating, Morningglory: 25
morningglory; [4]
  Plant response rating, Morningglory: 55
morningglory; [5]
  Morningglory plant response rating: 0
morningglory; [6]
  Plant response rating, Morningglory: 0
morningglory; [7]
  Plant response rating, Morningglory: 30
morningglory; Preemergence, 250 g ai/ha
  Plant response rating (scale of 0 to 100), Morningglory: 25
oat, wild; [1]
  Plant response rating, Oat, Wild: 0
oat, wild; [2]
  Plant response rating, Oat, Wild: 0
oat, wild; [3]
  Plant response rating, Oat, Wild: 0
oat, wild; [4]
  Plant response rating, Oat, Wild: 0

## O=C1NC[C@H](c2cccc(C(F)(F)F)c2)[C@H]1C(=O)Nc1ccccc1F [Compound 204, (3R,4S)—N-(2-fluorophenyl)-2-oxo-4-[3-(trifluoromethyl)phenyl]-3-pyrrolidinecarboxamide]
corn; [8]
  Plant response rating, Corn: 0
corn; [9]
  Plant response rating, Corn: 0
corn; [3]
  Plant response rating, Corn: 0
corn; [4]
  Plant response rating, Corn: 40
corn; [5]
  Corn plant response rating: 45
corn; [10]
  Corn plant response rating: 25
corn; [7]
  Plant response rating, Corn: 55
corn; Preemergence, 250 g ai/ha
  Plant response rating (scale of 0 to 100), Corn: 75
velvetleaf; [8]
  Plant response rating, Velvetleaf: 0
velvetleaf; [9]
  Plant response rating, Velvetleaf: 0
velvetleaf; [3]
  Plant response rating, Velvetleaf: 0
velvetleaf; [4]
  Plant response rating, Velvetleaf: 10
velvetleaf; [5]
  Velvetleaf plant response rating: 0
velvetleaf; [10]
  Velvetleaf plant response rating: 0
velvetleaf; [7]
  Plant response rating, Velvetleaf: 0
velvetleaf; Preemergence, 250 g ai/ha
  Plant response rating (scale of 0 to 100), Velvetleaf: 30
waterhemp; [8]
  Plant response rating, Waterhemp: 0
waterhemp; [9]
  Plant response rating, Waterhemp: 0
waterhemp; [3]
  Plant response rating, Waterhemp: 0
waterhemp; [4]
  Plant response rating, Waterhemp: 5
waterhemp; [5]
  Waterhemp plant response rating: 100
waterhemp; [10]
  Waterhemp plant response rating: 75
waterhemp; [7]
  Plant response rating, Waterhemp: 80
waterhemp; Preemergence, 250 g ai/ha
  Plant response rating (scale of 0 to 100), Waterhemp: 90
Wheat (winter wheat); [8]
  Plant response rating, Wheat: 0
Wheat (winter wheat); [9]
  Plant response rating, Wheat: 0
Wheat (winter wheat); [3]
  Plant response rating, Wheat: 0
Wheat (winter wheat); [4]
  Plant response rating, Wheat: 0
Wheat (winter wheat); [5]
  Wheat plant response rating: 0
Wheat (winter wheat); [10]
  Wheat plant response rating: 70
Wheat (winter wheat); [7]
  Plant response rating, Wheat: 80
Wheat (winter wheat); Preemergence, 250 g ai/ha
  Plant response rating (scale of 0 to 100), Wheat: 90
barnyardgrass; [8]
  Plant response rating, Barnyardgrass: 5
barnyardgrass; [9]
  Plant response rating, Barnyardgrass: 55
barnyardgrass; [3]
  Plant response rating, Barnyardgrass: 80
barnyardgrass; [4]
  Plant response rating, Barnyardgrass: 90
barnyardgrass; Preemergence, 31 g ai/ha
  Barnyardgrass plant response rating: 80
barnyardgrass; [6]
  Plant response rating, Barnyardgrass: 90
barnyardgrass; [7]
  Plant response rating, Barnyardgrass: 95
barnyardgrass; Preemergence, 250 g ai/ha
  Plant response rating (scale of 0 to 100; 0 is no effect, 100 is complete control), Barnyardgrass: 95
pigweed; [8]
  Plant response rating, Pigweed: 20
pigweed; [9]
  Plant response rating, Pigweed: 10
pigweed; [3]
  Plant response rating, Pigweed: 10
pigweed; [4]
  Plant response rating, Pigweed: 10
pigweed; [5]
  Pigweed plant response rating: 0
pigweed; [10]
  Pigweed plant response rating: 0
pigweed; [7]
  Plant response rating, Pigweed: 0
pigweed; Preemergence, 250 g ai/ha
  Plant response rating (scale of 0 to 100), Pigweed: 75
soybean; [8]
  Plant response rating, Soybean: 0
soybean; [9]
  Plant response rating, Soybean: 0
soybean; [3]
  Plant response rating, Soybean: 0
soybean; [4]
  Plant response rating, Soybean: 5
soybean; Preemergence, 31 g ai/ha
  Soybean plant response rating: 5
soybean; [7]
  Plant response rating, Soybean: 5
soybean; Preemergence, 250 g ai/ha
  Plant response rating (scale of 0 to 100), Soybean: 10
Oilseed rape; [8]
  Plant response rating, Oilseed Rape: 0
Oilseed rape; [9]
  Plant response rating, Oilseed Rape: 0
Oilseed rape; [3]
  Plant response rating, Oilseed Rape: 0
Oilseed rape; [4]
  Plant response rating, Oilseed Rape: 45
Oilseed rape; [5]
  Oilseed Rape plant response rating: 0
Oilseed rape; [10]
  Oilseed Rape plant response rating: 0
Oilseed rape; [7]
  Plant response rating, Oilseed Rape: 0
Oilseed rape; Preemergence, 250 g ai/ha
  Plant response rating (scale of 0 to 100), Oilseed Rape: 60
morningglory; [8]
  Plant response rating, Morningglory: 5
morningglory; [9]
  Plant response rating, Morningglory: 5
morningglory; [3]
  Plant response rating, Morningglory: 15
morningglory; [4]
  Plant response rating, Morningglory: 35
morningglory; [5]
  Morningglory plant response rating: 0
morningglory; [10]
  Morningglory plant response rating: 0
morningglory; [7]
  Plant response rating, Morningglory: 20
morningglory; Preemergence, 250 g ai/ha
  Plant response rating (scale of 0 to 100), Morningglory: 40
oat, wild; [8]
  Plant response rating, Oat, Wild: 0
oat, wild; [9]
  Plant response rating, Oat, Wild: 0
oat, wild; [3]
  Plant response rating, Oat, Wild: 0
oat, wild; [4]
  Plant response rating, Oat, Wild: 5

## O=C1NCC(c2ccc(Cl)c(Cl)c2)C1C(=O)Nc1ccccc1F (racemic) [Compound 14]
corn; [6]
  Plant response rating, Corn: 0
corn; [7]
  Plant response rating, Corn: 0
corn; Preemergence, 31 g ai/ha, scale 0 to 100 (0 no effect, 100 complete control)
  Corn plant response rating: 0
corn; Preemergence, 250 g ai/ha, scale 0 to 100 (0 no effect, 100 complete control)
  Plant response rating, Corn: 0
velvetleaf; [6]
  Plant response rating, Velvetleaf: 0
velvetleaf; [7]
  Plant response rating, Velvetleaf: 0
Wheat (winter wheat); [6]
  Plant response rating, Wheat: 10
Wheat (winter wheat); [7]
  Plant response rating, Wheat: 10
pigweed; [6]
  Plant response rating, Pigweed: 0
pigweed; [7]
  Plant response rating, Pigweed: 0
soybean; [6]
  Plant response rating, Soybean: 0
soybean; [7]
  Plant response rating, Soybean: 0
morningglory; [6]
  Plant response rating, Morningglory: 0
morningglory; [7]
  Plant response rating, Morningglory: 0
oat, wild; [6]
  Plant response rating, Oat, Wild: 0
oat, wild; [7]
  Plant response rating, Oat, Wild: 0
